Assay [1] addresses T1, Alpha-glucosidase MAL62 (Saccharomyces cerevisiae, UniProt P07265). As to the kind of experiment: (§1) Inhibition of yeast alpha-glucosidase using p-nitrophenyl-alpha-D-glucopyranoside as substrate preincubated for 10 min before substrate addition and measured after 10 min by spectrophotometry.
Assay [2] deals with Alpha-glucosidase MAL62 (Saccharomyces cerevisiae) (UniProt P07265). As to the kind of experiment: Inhibition of yeast alpha-glucosidase using p-nitrophenyl-alpha-D-glucopyranoside as substrate preincubated at 300 uM for 10 min before substrate addition and measured after 10 min by spectrophotometry.
Assay [3] shares this target. Described as §1.
The target in assay [4] is T1, Alpha-glucosidase MAL62. As to the kind of experiment: Mixed-type inhibition of yeast alpha-glucosidase by Lineweaver-Burk plot analysis.
The target in assay [5] is T1, Alpha-glucosidase MAL62. In words: Uncompetitive inhibition of yeast alpha-glucosidase by Lineweaver-Burk plot analysis.
Assay [6] concerns the target T1, Alpha-glucosidase MAL62. As to the kind of experiment: Competitive inhibition of yeast alpha-glucosidase by Dixon plot analysis.
Assay [7] deals with Alpha-glucosidase MAL62 (Saccharomyces cerevisiae) (UniProt P07265). In words: Competitive inhibition of yeast alpha-glucosidase by Lineweaver-Burk plot analysis.

The source made the active and inactive calls. The calls are words filed in the database; no cut-off is given here. Where only a bound is given, the exact number is not on record here.

T1 sequence (P07265 whole entry): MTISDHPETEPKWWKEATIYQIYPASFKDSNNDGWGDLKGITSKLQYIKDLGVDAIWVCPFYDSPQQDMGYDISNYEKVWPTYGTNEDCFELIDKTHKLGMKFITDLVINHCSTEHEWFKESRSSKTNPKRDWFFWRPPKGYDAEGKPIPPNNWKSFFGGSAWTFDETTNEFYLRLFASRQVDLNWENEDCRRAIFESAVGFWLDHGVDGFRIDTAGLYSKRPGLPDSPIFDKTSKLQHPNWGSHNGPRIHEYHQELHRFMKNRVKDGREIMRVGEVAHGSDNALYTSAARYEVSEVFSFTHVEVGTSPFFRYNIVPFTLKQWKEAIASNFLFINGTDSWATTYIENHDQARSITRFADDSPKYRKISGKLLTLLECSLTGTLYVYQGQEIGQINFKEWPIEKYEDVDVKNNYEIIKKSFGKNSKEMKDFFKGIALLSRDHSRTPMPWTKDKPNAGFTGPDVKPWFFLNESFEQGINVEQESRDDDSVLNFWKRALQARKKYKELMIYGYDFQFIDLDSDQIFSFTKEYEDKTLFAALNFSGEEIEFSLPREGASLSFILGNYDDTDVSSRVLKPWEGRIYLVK
Chain of Alpha-glucosidase MAL62 (Saccharomyces cerevisiae) (P07265 whole entry): as above

A word on the IC50: it is the concentration at which inhibition is half-maximal. Higher therefore signals lower potency. Broadly, the inhibition is the share of the control response that was lost under treatment. As for `O=C(O)/C=C/c1ccc(O)c(O)c1` [CAFFEIC ACID], the IC50 on Alpha-glucosidase MAL62 [1] was over 300 µM. The inhibition in assay [2] was determined as 10.2%.
Regarding `OC[C@H]1NC[C@H](O)[C@@H](O)[C@@H]1O` [DUVOGLUSTAT], at Alpha-glucosidase MAL62 [1], the concentration for half-maximal inhibition (IC50) is 278 µM.
`COc1ccc(/C=C/C(=O)NCCc2c[nH]c3ccc(O)cc23)cc1OC` [N-3,4-DIMETHOXY CINNAMOYL SEROTONIN] yielded a half-inhibitory concentration (IC50) against Alpha-glucosidase MAL62 [1] of over 300 µM. For the same molecule, the inhibition entry in assay [3] was “Dose-dependent effect”.
As to `COc1cc(/C=C/C(=O)O)cc(OC)c1O` [SINAPINATE], the 50% inhibitory concentration (IC50) against Alpha-glucosidase MAL62 [1] was found to be 145 µM.
On to `O=C(O)/C=C/c1ccc(O)cc1` [COUMARIC ACID], for which the half-maximal inhibitory concentration (IC50) against Alpha-glucosidase MAL62 [1] was over 300 µM. The inhibition in assay [2] came out at 4.9%.
At Alpha-glucosidase MAL62 [1], `NCCc1c[nH]c2ccc(O)cc12` [SEROTONIN] returned a half-inhibitory concentration (IC50) of over 300 µM. For the same molecule, the inhibition in assay [2] is 25.6%.
For the molecule `O=C(CCc1ccc(O)c(O)c1)NCCc1c[nH]c2ccc(O)cc12` [N-DIHYDROCAFFEOYL SEROTONIN], the IC50 at Alpha-glucosidase MAL62 [1] was over 300 µM.
By Ki is commonly meant a dissociation constant, usually derived from enzyme kinetics or from competition with a known ligand. At Alpha-glucosidase MAL62 [1], `COc1cc(/C=C/C(=O)NCCc2c[nH]c3ccc(O)cc23)cc(OC)c1O` [N-SINAPOYL SEROTONIN] yielded an IC50 of 66.2 µM. Also, the inhibition result in assay [3] was “Dose-dependent effect”. For the same molecule, on Alpha-glucosidase MAL62 [4], the Ki worked out at 111 µM.
`O=C(/C=C/c1ccc(O)c(O)c1)NCCc1c[nH]c2ccc(O)cc12` [N-CAFFEOYLSEROTONIN]: the affinity on Alpha-glucosidase MAL62 [5], expressed as Ki, was 64.4 µM. In addition, it took 48.2 µM to reach half-maximal inhibition against Alpha-glucosidase MAL62 [1] (IC50). Also, the inhibition entry in assay [3] was “Dose-dependent effect”.
Take `O=C(CCc1ccc(O)cc1)NCCc1c[nH]c2ccc(O)cc12` [N-DIHYDRO-P-COUMAROYLSEROTONIN]: on Alpha-glucosidase MAL62 [1], the IC50 is over 300 µM.
As to `COc1cc(/C=C/C(=O)NCCc2c[nH]c3ccc(O)cc23)ccc1O` [N-FERULOYL SEROTONIN], at Alpha-glucosidase MAL62 [1], the midpoint of inhibition, the IC50, lay at 99.8 µM. Besides, the inhibition result in assay [3] is “Dose-dependent effect”. Also, at Alpha-glucosidase MAL62 [4], the affinity corresponds to a Ki of 130 µM.
For `O=C(O)/C=C/c1ccccc1` [CINNAMIC ACID], the IC50 against Alpha-glucosidase MAL62 [1] is over 300 µM. In addition, the inhibition in assay [2] came out at 4.5%.
As to `COc1ccc(/C=C/C(=O)NCCc2c[nH]c3ccc(O)cc23)cc1O` [N-ISOFERULOYL SEROTONIN], at Alpha-glucosidase MAL62 [1], the half-maximal inhibitory concentration (IC50) is over 300 µM. Further, the inhibition entry in assay [3] was “Dose-dependent effect”.
On to `COc1cc(/C=C/C(=O)O)ccc1O` [FERULATE], for which the half-inhibitory concentration (IC50) at Alpha-glucosidase MAL62 [1] was over 300 µM.
Molecule `O=C(/C=C/c1ccc(O)cc1)NCCc1c[nH]c2ccc(O)cc12` [N-P-COUMAROYL SEROTONIN] gave a Ki on Alpha-glucosidase MAL62 [5] of 81.6 µM. On Alpha-glucosidase MAL62 [1], this molecule displayed an IC50 of 47.2 µM. Besides, the inhibition entry in assay [3] is “Dose-dependent effect”.
The molecule `O=C(CCc1ccccc1)NCCc1c[nH]c2ccc(O)cc12` [N-DIHYDROCINNAMOYL SEROTONIN] gave an IC50 on Alpha-glucosidase MAL62 [1] of over 300 µM.
Still for that read-out and setting: the value for `COc1cc(CCC(=O)NCCc2c[nH]c3ccc(O)cc23)ccc1O` [N-DIHYDROFERULOYL SEROTONIN] was over 300 µM.
`O=C(/C=C/c1ccccc1)NCCc1c[nH]c2ccc(O)cc12` [N-CINNAMOYL SEROTONIN]: affinity on Alpha-glucosidase MAL62 [6] was put at a Ki of 133 µM. Besides, the inhibition entry in assay [7] is “Active”. This molecule came in with an IC50 on Alpha-glucosidase MAL62 [1] of 80.8 µM. In addition, in assay [3], the inhibition result was “Dose-dependent effect”.
For the molecule `COc1cc(CCC(=O)NCCc2c[nH]c3ccc(O)cc23)cc(OC)c1O` [N-DIHYDROSINAPOYL SEROTONIN], the half-inhibitory concentration (IC50) at Alpha-glucosidase MAL62 [1] was over 300 µM.
As for `COc1ccc(/C=C/C(=O)NCCc2c[nH]c3ccc(O)cc23)cc1` [N-P-METHOXY CINNAMOYL SEROTONIN], the half-inhibitory concentration (IC50) against Alpha-glucosidase MAL62 [1] is over 300 µM. Further, the inhibition entry in assay [3] is “Dose-dependent effect”.

Source of the values: ChEMBL document CHEMBL3044846, “Synthesis and structureactivity relationships of serotonin derivatives effect on -glucosidase inhibition” (Med Chem Res, 2012).
